Assay results published in patent US20220175761A1, “BI-LIGAND DRUG CONJUGATE AND USE THEREOF” (COHERENT BIOPHARMA (SUZHOU), LIMITED, priority 2019, published 2022).
Numbered stars: 1 amine (or outer) side, 2 acyl side, 3 side chain; on linkers, the order of the positions; unused ones are H or OH. Bridge positions count the residues as written; N and C are the ends. Square brackets hold non-standard residues; d marks the D form. Peptide text beside a SMILES is read from it. I, II: the chains in the order shown. * marks the point of attachment. ξ: configuration not given here. X5 = CCc1c2c(nc3ccc(O)cc13)-c1cc3c(c(=O)n1C2)COC(=O)[C@@]3(CC)OC(=O)OCc1ccc(NC(=O)COCC(=O)*)cc1; Hexanoyl(6-succinimido-3yl) = O=C1CC([*:1])C(=O)N1CCCCCC(=O)[*:2]; X4 = O=C([C@H](Cc1cnnn1CCOCCOCCOCCOCCOCCN[*:3])N[*:1])[*:2]; EuK = O=C(O)CC[C@H](NC(=O)N[C@@H](CCCCN*)C(=O)O)C(=O)O; Pteroyl = Nc1nc2ncc(CNc3ccc(C(=O)*)cc3)nc2c(=O)[nH]1; Dolaproine = CO[C@@H]([C@@H]1CCCN1)[C@@H](C)C(=O)O; Dil = CC[C@H](C)[C@H](NC)[C@@H](CC(=O)O)OC; γGlu = O=C(O)[C@H](CCC(=O)[*:2])N[*:1]; PABC = O=C(OCc1ccc(N[*:1])cc1)[*:2]; X1 = C[C@@H](N*)[C@@H](O)c1ccccc1; X2 = O=C(Cc1ccc(CN[*:1])cc1)[*:2]; PEG4 = NCCOCCOCCOCCOCCC(=O)O; NMeV = CN[C@H](C(=O)O)C(C)C; ξCit = NC(=O)NCCCC(N)C(=O)O; CO = O=C([*:1])[*:2]; ξV = CC(C)C(N)C(=O)O; Butyryl = CCCC(=O)*; Ahx = NCCCCCC(=O)O

Legend:
[1] = system: KB, LNCaP, T-47D, RT4 and NCI-H460 tumor cell lines; assay: Inhibition of tumor cell expansion, CCK8 (CB-50S); assay type: cell-based, human
Procedure: Cell lines: KB human oral epidermoid carcinoma cells, NCI-H460 human lung cancer cells, RT4 human bladder cancer cells, T-47D human breast cancer cells and LNCaP human prostate cancer cells
The cells were prepared in advance, digested with trypsin, collected and counted; with a complete cell culture medium, KB cells were diluted to 3.5×10^4 cells/ml, LNCaP cells were diluted to 8.0×10^4 cells/ml, T-47D cells were diluted to 1.2×10^4 cells/ml, NCI-H460 cells were diluted to 2.5×10^4 cells/ml, and RT4 cells were diluted to 1.2×10^5 cells/ml; to each well of 96-well plates, 100 μl of the diluted cell solution was added; and negative control and blank control wells were set on each plate. The 96-well plates added with the cells were placed in an incubator at 37° C., 5% CO2 for culturing overnight.
The samples were diluted with a culture medium to desired concentrations (see Table 16). […]
To each well, 15 μl (10% of the liquid volume in a well) of a color developing solution from CCK-8 was added; the plates were incubated at 37° C. for an appropriate time (try to keep the OD value in the range of 1.0-2.0); the covers of the 96-well plates were removed, and the plates were read at 450 nm on a microplate reader (Molecular Devices Spectra MAX Plus). […]

[2] = system: CFPAC-1 (human pancreatic cancer cells); assay: Inhibition of cell line proliferation, CCK8; assay type: cell-based
Procedure: (§1) Experimental operations: PANC-1 and CFPAC-1 cells were prepared in advance, counted, and plated in 96-well cell culture plates at a cell density of 4×10^4 cells/ml (100 μl/well); negative control and blank control wells were set on each plate. After adherent cell culture overnight, the diluted samples to be tested were added at 50 μl/well. The plates were placed in an incubator at 37° C., 5% CO2 and cultured for 68-72 hours. To each well, 15 μl (10% of the liquid volume in a well) of a color developing solution from CCK8 was added; and the plates were incubated at 37° C. for 45-70 minutes and each plate was read at 450 nm on a microplate reader. The data was edited using SoftMax Pro and a 4-P fitting curve was plotted.
(§2) Experimental operations: LNCaP, SK-BR-3, NCI-H226, CFPAC-1 and PANC-1 cells were prepared in advance and counted; with a culture medium (IMDM+10% FBS+1× L-Glutamine+1×P/S), the cells LNCaP, SK-BR-3 and CFPAC-1 were diluted to 4×10^4 cells/ml, NCI-H226 was diluted to 2.0×10^4 cells/ml and PANC-1 was diluted to 3.0×10^4 cells/ml; the diluted cell solution was plated in 96-well plates at 100 μl/well; and negative control and blank control wells were set on each plate. After adherent cell culture overnight, the diluted samples to be tested were added at 50 μl/well. The plates were placed in an incubator at 37° C., 5% CO2 and cultured for 68-72 hours. To each well, 15 μl (10% of the liquid volume in a well) of a color developing solution from CCK8 was added; and the plates were incubated at 37° C. for 45-70 minutes and each plate was read at 450 nm on a microplate reader. The data was edited using SoftMax Pro and a 4-P fitting curve was plotted.
(§3) Experimental Operations: LNCaP, SK-BR-3, MDA-MB-468 and CFPAC-1 cells were prepared in advance and counted; with a culture medium (IMDM+10% FBS+1× L-Glutamine+1×P/S), the cells LNCaP, SK-BR-3, MDA-MB-468 and CFPAC-1 were diluted to 4×10^4 cells/ml; the diluted cell solution was plated in 96-well plates at 100 µl/well; and negative control and blank control wells were set on each plate. After adherent cell culture overnight, the diluted samples to be tested were added at 50 μl/well. The plates were placed in an incubator at 37° C., 5% CO2 and cultured for 68-72 hours. To each well, 15 μl (10% of the liquid volume in a well) of a color developing solution from CCK8 was added; and the plates were incubated at 37° C. for 45-70 minutes and each plate was read at 450 nm on a microplate reader. The data was edited using SoftMax Pro and a 4-P fitting curve was plotted.
as §3, with “Operations: LNCaP, MDA-MB-468, CFPAC-1 and PANC-1” for “Operations: LNCaP, SK-BR-3, MDA-MB-468 and CFPAC-1”, “CFPAC-1 and PANC-1 cells were” for “MDA-MB-468 and CFPAC-1 cells were”, “cells LNCaP, MDA-MB-468 and” for “cells LNCaP, SK-BR-3, MDA-MB-468 and”, “to 4×10^4 cells/ml, and PANC-1 was diluted to 3.0×10^4 cells/ml; the” for “to 4×10^4 cells/ml; the”, “at 100 μl/well; and negative” for “at 100 µl/well; and negative”
Experimental operations: NCI-H226, CFPAC-1 and MDA-MB-468 cells were prepared in advance and counted; MDA-MB-468 and CFPAC-1 cells were plated at a density of 2×10^4 cells/ml (100 μl/well) and NCI-H226 cells were plated at a density of 1×10^4 cells/ml (100 μl/well) in 96-well plates; and negative control and blank control wells were set on each plate. After adherent cell culture overnight, the diluted samples to be tested were added at 50 μl/well. The plates were placed in an incubator at 37° C., 5% CO2 and cultured for 68-72 hours. […]

[3] = system: PANC-1 (human pancreatic cancer cells); assay: Inhibition of cell line proliferation, CCK8; assay type: cell-based
Procedure: as §1, §2
as §3, with “Operations: LNCaP, MDA-MB-468, CFPAC-1 and PANC-1” for “Operations: LNCaP, SK-BR-3, MDA-MB-468 and CFPAC-1”, “CFPAC-1 and PANC-1 cells were” for “MDA-MB-468 and CFPAC-1 cells were”, “cells LNCaP, MDA-MB-468 and” for “cells LNCaP, SK-BR-3, MDA-MB-468 and”, “to 4×10^4 cells/ml, and PANC-1 was diluted to 3.0×10^4 cells/ml; the” for “to 4×10^4 cells/ml; the”, “at 100 μl/well; and negative” for “at 100 µl/well; and negative”

[4] = system: MDA-MB-468 (human breast cancer cells); assay: Inhibition of cell line proliferation, CCK8; assay type: cell-based
Procedure: as §3
as §3, with “Operations: LNCaP, MDA-MB-468, CFPAC-1 and PANC-1” for “Operations: LNCaP, SK-BR-3, MDA-MB-468 and CFPAC-1”, “CFPAC-1 and PANC-1 cells were” for “MDA-MB-468 and CFPAC-1 cells were”, “cells LNCaP, MDA-MB-468 and” for “cells LNCaP, SK-BR-3, MDA-MB-468 and”, “to 4×10^4 cells/ml, and PANC-1 was diluted to 3.0×10^4 cells/ml; the” for “to 4×10^4 cells/ml; the”, “at 100 μl/well; and negative” for “at 100 µl/well; and negative”
Experimental operations: NCI-H226, CFPAC-1 and MDA-MB-468 cells were prepared in advance and counted; MDA-MB-468 and CFPAC-1 cells were plated at a density of 2×10^4 cells/ml (100 μl/well) and NCI-H226 cells were plated at a density of 1×10^4 cells/ml (100 μl/well) in 96-well plates; and negative control and blank control wells were set on each plate. After adherent cell culture overnight, the diluted samples to be tested were added at 50 μl/well. The plates were placed in an incubator at 37° C., 5% CO2 and cultured for 68-72 hours. To each well, 15 μl (10% of the liquid volume in a well) of a color developing solution from CCK8 was added; and the plates were incubated at 37° C. for 45-70 minutes and each plate was read at 450 nm on a microplate reader. The data was edited using SoftMax Pro and a 4-P fitting curve was plotted.

[5] = system: SCLC-21H (small cell lung cancer cells); assay: Tumor growth inhibition in subcutaneous xenograft model (CDX); assay type: in vivo, BALB/c-nude mice; settings: SCLC-21H CDX
Procedure: Main CDX models: HPAF-II (human pancreatic cancer cells), NCI-H226 (human lung cancer cells) and SCLC-21H (small cell lung cancer cells)
The cells or tumor tissue mass were prepared and subcutaneously inoculated into the anterior right flank of BALB/c-nude mice. When the tumor volume expanded to 80-160 mm^3, a randomized grouping was performed, and a model control group and administration groups were set. The mice were administrated from the first day of grouping, wherein the administration dose was adjusted according to the latest weight measurement. The mice were administrated via tail vein injection at an administration volume of 10 μl/g. After grouping and administration, the effects of tumor growth and treatment on normal behaviors of animals, specifically including the activity of experimental animals, food intake and drinking status, weight gain or loss status, and other abnormal conditions in eyes, hair, etc., were monitored. After grouping and administration, the weight of mice was measured twice a week to calculate the rate of weight change; at the same time, the long diameter and short diameter of the tumor were measured with a vernier caliper, and the tumor volume, relative tumor proliferation rate, tumor volume inhibition rate and other indicators were calculated. The formula of tumor volume is TV=0.5 a×b^2, wherein a is […] the long diameter of a tumor and b is the short diameter of a tumor.

[6] = system: LNCaP (human prostate cancer cells); assay: Inhibition of cell line proliferation, CCK8; assay type: cell-based; settings: LNCaP
From the text: Since different cells have different sensitivity to a cell proliferation inhibitory toxicity of the payload in a ligand conjugate, the quantitative analysis may be interfered occasionally. A series of cell lines with known expression levels of receptors of different ligands were selected and tested for the response to inhibitory effects of the cell proliferation of a ligand conjugate and a single payload. The IC50 ratio of a single payload to that of a ligand conjugate in same cell line were taken to remove such interference.
as §1, with “LNCaP” for “PANC-1”, “22RV1” for “CFPAC-1”, “cells/ml and 2.0×10^4 cells/ml, respectively” for “cells/ml”, “plotted. […]” for “plotted.”

Structure (SMILES)	inhibitory effect on growth and expansion of tumor cell lines ([1]; 72 hours, CCK-8)	IC50 compared between cell lines ([1]; KB, LNcap, T-47D and RT4 versus NCI-H460)	IC50 (MMAE)/IC50 (conjugate) ([2]; CFPAC-1)	IC50 ([2]; CFPAC-1, 68-72 hours, CCK8)	IC50 (MMAE)/IC50 (conjugate) ([3]; PANC-1)	IC50 ([3]; PANC-1, 68-72 hours, CCK8)	IC50 (MMAE)/IC50 (conjugate) ([4]; MDA-MB-468)	IC50 ([4]; MDA-MB-468, 68-72 hours, CCK8)	anti-tumor growth effect (in words) [5]	IC50 ratio (MMAE/conjugate) [6]	IC50 ([6]; 68-72 hours, CCK8)
CCc1c2c(nc3ccc(O)cc13)-c1cc3c(c(=O)n1C2)COC(=O)[C@@]3(CC)OC(=O)OCc1ccc(NC(=O)COCC(=O)NCCOCCOCCOCCOCCOCCn2nncc2C[C@H](NC(=O)CC[C@H](NC(=O)c2ccc(NCc3cnc4[nH]c(N)nc(=O)c4n3)cc2)C(=O)O)C(=O)N[C@@H](CCCCN)C(=O)N[C@@H](CCC(=O)O)C(=O)N[C@@H](Cc2ccccc2)C(=O)N[C@@H](CC(C)C)C(=O)N[C@@H](Cc2cnc[nH]2)C(=O)N2CCC[C@H]2C(=O)N[C@@H](CO)C(=O)N[C@@H](CCCCN)C(=O)NC(C(=O)N[C@@H](CC(=O)O)C(=O)N[C@@H](CC(C)C)C(=O)N2CCC[C@H]2C(=O)N[C@@H](CCCNC(=N)N)C(=O)O)C(C)C)cc1 (some centres unmarked) [CB-50S] ({Pteroyl-γGlu}-[X4](X5)KEFLHPSK[ξV]DLPR-OH)	has an inhibitory effect	significantly lower	–	–	–	–	–	–	–	–	–
CCCC(=O)N[C@@H](Cc1ccccc1)C(=O)N[C@H]1CSSC[C@@H](C(=O)N[C@H](C(=O)N[C@@H](CCCCNC(=O)[C@H](CCC(=O)O)NC(=O)CCOCCOCCOCCOCCNC(=O)[C@H](CCC(=O)O)NC(=O)[C@H](CSC2CC(=O)N(CCCCCC(=O)N[C@H](C(=O)NC(CCCNC(N)=O)C(=O)Nc3ccc(COC(=O)N(C)[C@H](C(=O)N[C@H](C(=O)N(C)[C@@H]([C@@H](C)CC)[C@@H](CC(=O)N4CCC[C@H]4[C@H](OC)[C@@H](C)C(=O)N[C@H](C)[C@@H](O)c4ccccc4)OC)C(C)C)C(C)C)cc3)C(C)C)C2=O)NC(=O)CCCCCNC(=O)[C@H](CCCCN)NC(=O)[C@H](CC(=O)O)NC(=O)[C@H](CC(=O)O)NC(=O)Cc2ccc(CNC(=O)NCCCC[C@H](NC(=O)N[C@@H](CCC(=O)O)C(=O)O)C(=O)O)cc2)C(N)=O)[C@@H](C)O)NC(=O)[C@H]([C@@H](C)O)NC(=O)[C@H](CCCCN)NC(=O)[C@H](Cc2c[nH]c3ccccc23)NC(=O)[C@H](Cc2ccc(O)cc2)NC1=O (some centres unmarked) [CB-1820] (I: Butyryl-FCYWKTCTK-NH2 / II: {EuK-CO}-[X2]DDK[Ahx]CE[PEG4]E / III: V[ξCit][PABC][NMeV]V[Dil][Dolaproine]-X1; disulfide I:2-I:7; amide I:9-II:C; linker II:6-III:N via Hexanoyl(6-succinimido-3yl))	–	–	0.0421	356 nM	0.0364	55 nM	0.0323	62 nM	obvious anti-tumor growth effect	0.1429	21 nM
